Results from PMC10504751, “Chalcone/1,3,4-Oxadiazole/Benzimidazole hybrids as novel anti-proliferative agents inducing apoptosis and inhibiting EGFR & BRAFV^600E” (BMC Chemistry, 2023).

Columns and labels:
Assay in all cases: NCI one-dose SRB anti-proliferative screen
Assay type in all cases: cell-based
[1] = test system: SF-268; details: Homo sapiens; SF-268, CNS Cancer; NCI one dose; read-out: Cell growth inhibition %
Procedure, shortened: (§1)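 Activity reflects a single-point exposure at 10 µM, with cell mass determined by a sulforhodamine B dye assay.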

[2] = test system: EKVX; details: Homo sapiens; EKVX, Non-Small Cell Lung Cancer; NCI one dose; read-out: Cell growth inhibition %
Procedure, shortened: as §1

[3] = test system: MDA-MB-468; details: Homo sapiens; MDA-MB-468, Breast cancer; NCI one dose; read-out: Cell growth inhibition %
Procedure, shortened: as §1

[4] = test system: ACHN; details: Homo sapiens; ACHN, Renal cancer; NCI one dose; read-out: Cell growth inhibition %
Procedure, shortened: as §1

[5] = test system: DU-145; details: Homo sapiens; DU-145, Prostate Cancer; NCI one dose; read-out: Cell growth inhibition %
Procedure, shortened: as §1

[6] = test system: A498; details: Homo sapiens; A498, Renal cancer; NCI one dose; read-out: Cell growth inhibition %
Procedure, shortened: as §1

[7] = test system: UACC-62; details: Homo sapiens; UACC-62, Melanoma; NCI one dose; read-out: Cell growth inhibition %
Procedure, shortened: as §1

[8] = test system: HCT-15; details: Homo sapiens; HCT-15, Colon cancer; NCI one dose; read-out: Cell growth inhibition %
Procedure, shortened: as §1

[9] = test system: U251; details: Homo sapiens, U-251; U251, CNS Cancer; NCI one dose; read-out: Cell growth inhibition %
Procedure, shortened: as §1

[10] = test system: HS 578T; details: Homo sapiens; HS 578T, Breast cancer; NCI one dose; read-out: Cell growth inhibition %
Procedure, shortened: as §1

[11] = test system: OVCAR-4; details: Homo sapiens; OVCAR-4, Ovarian Cancer; NCI one dose; read-out: Cell growth inhibition %
Procedure, shortened: as §1

[12] = test system: A549/ATCC; details: Homo sapiens; A549/ATCC, Non-Small Cell Lung Cancer; NCI one dose; read-out: Cell growth inhibition %
Procedure, shortened: as §1

[13] = test system: NCI-H522; details: Homo sapiens; NCI-H522, Non-Small Cell Lung Cancer; NCI one dose; read-out: Cell growth inhibition %
Procedure, shortened: as §1

[14] = test system: TK-10; details: Homo sapiens; TK-10, Renal cancer; NCI one dose; read-out: Cell growth inhibition %
Procedure, shortened: as §1

[15] = test system: HT29; details: Homo sapiens, HT-29; HT29, Colon cancer; NCI one dose; read-out: Cell growth inhibition %
Procedure, shortened: as §1

[16] = test system: MCF7; details: Homo sapiens; MCF7, Breast cancer; NCI one dose; read-out: Cell growth inhibition %
Procedure, shortened: as §1

[17] = test system: CCRF-CEM; details: Homo sapiens; CCRF-CEM, Leukemia; NCI one dose; read-out: Cell growth inhibition %
Procedure, shortened: as §1

[18] = test system: OVCAR-3; details: Homo sapiens; OVCAR-3, Ovarian Cancer; NCI one dose; read-out: Cell growth inhibition %
Procedure, shortened: as §1

[19] = test system: HCC-2998; details: Homo sapiens; HCC-2998, Colon cancer; NCI one dose; read-out: Cell growth inhibition %
Procedure, shortened: as §1

[20] = test system: OVCAR-5; details: Homo sapiens; OVCAR-5, Ovarian Cancer; NCI one dose; read-out: Cell growth inhibition %
Procedure, shortened: as §1

[21] = test system: SW-620; details: Homo sapiens; SW-620, Colon cancer; NCI one dose; read-out: Cell growth inhibition %
Procedure, shortened: as §1

[22] = test system: NCI-H226; details: Homo sapiens; NCI-H226, Non-Small Cell Lung Cancer; NCI one dose; read-out: Cell growth inhibition %
Procedure, shortened: as §1

[23] = test system: KM12; details: Homo sapiens; KM12, Colon cancer; NCI one dose; read-out: Cell growth inhibition %
Procedure, shortened: as §1

[24] = test system: UACC-257; details: Homo sapiens; UACC-257, Melanoma; NCI one dose; read-out: Cell growth inhibition %
Procedure, shortened: as §1

[25] = test system: NCI-H23; details: Homo sapiens; NCI-H23, Non-Small Cell Lung Cancer; NCI one dose; read-out: Cell growth inhibition %
Procedure, shortened: as §1

[26] = test system: OVCAR-8; details: Homo sapiens; OVCAR-8, Ovarian Cancer; NCI one dose; read-out: Cell growth inhibition %
Procedure, shortened: as §1

[27] = test system: SF-539; details: Homo sapiens; SF-539, CNS Cancer; NCI one dose; read-out: Cell growth inhibition %
Procedure, shortened: as §1

[28] = test system: IGROV1; details: Homo sapiens, IGROV-1; IGROV1, Ovarian Cancer; NCI one dose; read-out: Cell growth inhibition %
Procedure, shortened: as §1

[29] = test system: 786-0; details: Homo sapiens; 786-0, Renal cancer; NCI one dose; read-out: Cell growth inhibition %
Procedure, shortened: as §1

[30] = test system: LOX IMVI; details: Homo sapiens; for inhibition at 10 µM: Melanoma, NCI one dose, read-out: Cell growth inhibition %
Procedure, shortened: as §1

[31] = test system: NCI-H322M; details: Homo sapiens; NCI-H322M, Non-Small Cell Lung Cancer; NCI one dose; read-out: Cell growth inhibition %
Procedure, shortened: as §1

Row | Structure (SMILES) | inhibition at 10 µM [1] [%] | inhibition at 10 µM [2] [%] | inhibition at 10 µM [3] [%] | inhibition at 10 µM [4] [%] | inhibition at 10 µM [5] [%] | inhibition at 10 µM [6] [%] | inhibition at 10 µM [7] [%] | inhibition at 10 µM [8] [%] | inhibition at 10 µM [9] [%] | inhibition at 10 µM [10] [%] | inhibition at 10 µM [11] [%] | inhibition at 10 µM [12] [%] | inhibition at 10 µM [13] [%] | inhibition at 10 µM [14] [%] | inhibition at 10 µM [15] [%] | inhibition at 10 µM [16] [%] | inhibition at 10 µM [17] [%] | inhibition at 10 µM [18] [%] | inhibition at 10 µM [19] [%] | inhibition at 10 µM [20] [%] | other results
1 | COc1ccc(-c2nc3cc(-c4nnc(SCC(=O)Nc5ccc(C(=O)/C=C/c6ccccc6)cc5)o4)ccc3[nH]2)cc1 [Compound 7k, 2-{5-[2-(4-Methoxyphenyl)-1 H-benzo[d]imidazol-5-yl]-1,3,4-oxadiazol-2-ylthio}-N-{4-[(E)-3-phenylacryloyl]phenyl}acetamide] | 17.1 | 13.9 | 19.5 | 7.59 | 9.04 | 19.9 | 20.1 | 23.5 | 33.2 | 7.69 | 19.1 | 5.82 | 17.3 | 0 | 14.1 | 50.3 | 48.2 | 0 | 0 | 0 | inhibition at 10 µM [21]: 0%; inhibition at 10 µM [22]: 35.4%; inhibition at 10 µM [23]: 15.6%; inhibition at 10 µM [24]: 0.49%; inhibition at 10 µM [25]: 16.9%; inhibition at 10 µM [26]: 28.2%; inhibition at 10 µM [27]: 27.5%; inhibition at 10 µM [28]: 2.63%; inhibition at 10 µM [29]: 41.2%; activity at 10 µM ([30]; LOX IMVI (Melanoma), 10 µM one dose, read-out: Growth Percent): 14.9%; inhibition at 10 µM [30]: 85.1%; inhibition at 10 µM [31]: 0%
2 | COc1ccc(/C=C/C(=O)c2ccc(NC(=O)CSc3nnc(-c4ccc5[nH]c(-c6ccc(OC)cc6)nc5c4)o3)cc2)cc1 [Compound 7m, 2-{5-[2-(4-Methoxyphenyl)-1 H-benzo[d]imidazol-5-yl]-1,3,4-oxadiazol-2-ylthio}-N-{4-[(E)-3-(4-methoxyphenyl)acryloyl]phenyl}acetamide] | 5.02 | 9.73 | 0 | 0 | 0 | 0 | 14.9 | 4.27 | 15.9 | 21.1 | 6.89 | 0 | 22.8 | 0 | 0 | 17.2 | 38.5 | 3.65 | 0 | 0 | inhibition at 10 µM [21]: 2%; inhibition at 10 µM [22]: 16%; inhibition at 10 µM [23]: 3.51%; inhibition at 10 µM [24]: 0%; inhibition at 10 µM [25]: 9.57%; inhibition at 10 µM [26]: 23.4%; inhibition at 10 µM [27]: 18%; inhibition at 10 µM [28]: 3.99%; inhibition at 10 µM [29]: 0%; inhibition at 10 µM [30]: 81.5%; inhibition at 10 µM [31]: 3.18%
3 | COc1ccc(/C=C/C(=O)c2ccc(NC(=O)CSc3nnc(-c4ccc5[nH]c(-c6ccccc6)nc5c4)o3)cc2)cc1OC [Compound 7d, 2-{5-[2-Phenyl-1 H-benzo[d]imidazol-5-yl]-1,3,4-oxadiazol-2-ylthio}-N-{4-[(E)-3-(3,4-dimethoxyphenyl)acryloyl]phenyl}acetamide] | 0 | 0 | 0 | 0 | 0 | 14.3 | 5.31 | 0 | 5.02 | 0 | 0 | 0 | 3.75 | 0 | 0 | 27.3 | 9.62 | 2.49 | 0 | 0 | inhibition at 10 µM [21]: 0%; inhibition at 10 µM [22]: 0%; inhibition at 10 µM [23]: 0%; inhibition at 10 µM [24]: 0%; inhibition at 10 µM [25]: 0%; inhibition at 10 µM [26]: 0%; inhibition at 10 µM [27]: 0.34%; inhibition at 10 µM [28]: 0%; inhibition at 10 µM [29]: 9.58%; inhibition at 10 µM [30]: 13.5%; inhibition at 10 µM [31]: 0%
4 | O=C(CSc1nnc(-c2ccc3[nH]c(-c4ccccc4)nc3c2)o1)Nc1ccc(C(=O)/C=C/c2ccc(Cl)cc2)cc1 [Compound 7b, 2-{5-[2-Phenyl-1 H-benzo[d]imidazol-5-yl]-1,3,4-oxadiazol-2-ylthio}-N-{4-[(E)-3-(4-chlorophenyl)acryloyl]phenyl}acetamide] | 0 | 0 | 0 | 0 | 0 | 6.84 | 11.6 | 0 | 7.14 | 0 | 0 | 0 | 11.6 | 0 | 0 | 16.8 | 0 | 0 | 0 | 0 | inhibition at 10 µM [21]: 0%; inhibition at 10 µM [22]: 3.63%; inhibition at 10 µM [23]: 0%; inhibition at 10 µM [24]: 0%; inhibition at 10 µM [25]: 0%; inhibition at 10 µM [26]: 2.36%; inhibition at 10 µM [27]: 4.06%; inhibition at 10 µM [28]: 15.3%; inhibition at 10 µM [29]: 2.96%; inhibition at 10 µM [30]: 12.9%; inhibition at 10 µM [31]: 0%
